For the test, the system named is P388 leukemia ip, CD2F1 mice, survival T/C. As to the kind of experiment: NCI In Vivo Anticancer Drug Screen. Data for tumor model P388 Leukemia (intraperitoneal) in CD2F1 (CDF1) mice. To be noted: endpoint: median survival time, higher = longer survival. The method in brief:
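Mice carrying the transplanted tumor received test compound or vehicle. Survival was recorded in each group, and the value is the treated-group measurement divided by that of the vehicle-treated control group.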

Setting [1] is: dose: 60.0 mg/kg/injection, schedule: Q01DX005 (ip), vehicle: saline with Tween-80.
[2] abbreviates: dose: 120.0 mg/kg/injection, schedule: Q01DX005 (ip), vehicle: saline with Tween-80.
Setting [3] is: dose: 50.0 mg/kg/injection, schedule: Q01DX009 (ip), vehicle: saline with Tween-80.
Where [4] appears, read: dose: 100.0 mg/kg/injection, schedule: Q01DX009 (ip), vehicle: saline with Tween-80.
[5] abbreviates: dose: 200.0 mg/kg/injection, schedule: Q01DX009 (ip), vehicle: saline with Tween-80.
Where [6] appears, read: dose: 50.0 mg/kg/injection, schedule: Q01DX005 (ip), vehicle: Klucel (hydroxypropylcellulose) (HPC).
The mark [7] stands for this setting: dose: 100.0 mg/kg/injection, schedule: Q01DX005 (ip), vehicle: Klucel (hydroxypropylcellulose) (HPC).
Setting [8] is: dose: 6.25 mg/kg/injection, schedule: Q01DX009 (ip), vehicle: saline with Tween-80.

“And” between values parts separate entries of the source, which are not always exact repeats. Equal values may be shown once. Inconclusive results and toxic doses are left out.

For `CSc1nc(NC2OCC(OC(C)=O)C(OC(C)=O)C2OC(C)=O)c(N=CC=Nc2c(NC3OCC(OC(C)=O)C(OC(C)=O)C3OC(C)=O)nc(SC)[nH]c2=O)c(=O)[nH]1` (stereo unspecified), the T/C was 90 % of control under setting [1]; 92 % of control under setting [2]; 89 % of control (dose: 240.0 mg/kg/injection, schedule: Q01DX005 (ip), vehicle: saline with Tween-80).
Turning to `O=C1c2ccccc2Cc2c(NCc3ccccc3)ncnc2N1Cc1ccccc1`, the T/C runs as follows: under setting [3], 104 % of control; under setting [4], 101 % of control; under setting [5], 90 % of control.
Regarding `C=Cn1c([N+](=O)[O-])cnc1/C=C\c1ccc(C(=O)NC(C)C)cc1`, the T/C is 92 % of control (dose: 100.0 mg/kg/injection, schedule: Q04DX002 (ip), vehicle: gum acacia); 96 % of control (dose: 200.0 mg/kg/injection, schedule: Q04DX002 (ip), vehicle: gum acacia); 92 % of control (dose: 400.0 mg/kg/injection, schedule: Q04DX002 (ip), vehicle: gum acacia).
As for `N#Cc1ccccc1-n1c(=O)c2cc3c(=O)n(-c4ccccc4C#N)c(=O)c3cc2c1=O`, the T/C is, setting by setting: (dose: 25.0 mg/kg/injection, schedule: Q01DX009 (ip), vehicle: saline with Tween-80) 100 % of control and 103 % of control; under setting [3], 95 % of control and 97 % of control; under setting [4], 100 % of control and 103 % of control; under setting [5], 102 % of control and 95 % of control; (dose: 400.0 mg/kg/injection, schedule: Q01DX009 (ip), vehicle: saline with Tween-80) 100 % of control and 96 % of control.
Regarding `Cc1nn(C(=O)c2ccncc2)c(C)c1N=Nc1cccc([N+](=O)[O-])c1`, the T/C reads like this: (dose: 100.0 mg/kg/injection, schedule: Q04DX003 (ip), vehicle: saline) 89 % of control; (dose: 200.0 mg/kg/injection, schedule: Q04DX003 (ip), vehicle: saline) 93 % of control.
For `CSCSCC(CO)NC(=O)/C=C/c1c(C)[nH]c(=O)[nH]c1=O` (stereo unspecified), the T/C is 105 % of control (dose: 0.08 mg/kg/injection, schedule: Q01DX009 (ip), vehicle: water); 107 % of control (dose: 0.15 mg/kg/injection, schedule: Q01DX009 (ip), vehicle: water); 102 % of control (dose: 0.3 mg/kg/injection, schedule: Q01DX009 (ip), vehicle: water); 101 % of control (dose: 0.6 mg/kg/injection, schedule: Q01DX009 (ip), vehicle: water); 109 % of control (dose: 1.2 mg/kg/injection, schedule: Q01DX009 (ip), vehicle: water); 87 % of control (dose: 50.0 mg/kg/injection, schedule: Q01DX009 (ip), vehicle: other). Further, the T/C by setting is: (dose: 100.0 mg/kg/injection, schedule: Q01DX009 (ip), vehicle: other) 98 % of control; (dose: 200.0 mg/kg/injection, schedule: Q01DX009 (ip), vehicle: other) 89 % of control; (dose: 400.0 mg/kg/injection, schedule: Q01DX009 (ip), vehicle: other) 86 % of control.
In the case of `O=c1oc(-c2cccc(-c3nc4c(c(=O)o3)CCS4)c2)nc2c1CCS2`, the T/C by setting is: under setting [6], 97 % of control; under setting [7], 100 % of control; (dose: 200.0 mg/kg/injection, schedule: Q01DX005 (ip), vehicle: Klucel (hydroxypropylcellulose) (HPC)) 91 % of control.
As for `CN(C)c1ccc(N=Nc2ccc3ccc4c(N=Nc5ccc(N(C)C)cc5)ccc5ccc2c3c54)cc1`, the T/C is, setting by setting: (dose: 50.0 mg/kg/injection, schedule: Q01DX009 (ip), vehicle: Klucel (hydroxypropylcellulose) (HPC)) 106 % of control; (dose: 100.0 mg/kg/injection, schedule: Q01DX009 (ip), vehicle: Klucel (hydroxypropylcellulose) (HPC)) 103 % of control; (dose: 200.0 mg/kg/injection, schedule: Q01DX009 (ip), vehicle: Klucel (hydroxypropylcellulose) (HPC)) 103 % of control.
Turning to `CS(=O)(=O)C#CCCCCCCC#CS(C)(=O)=O`, the T/C (dose: 6.25 mg/kg/injection, schedule: Q04DX002 (ip), vehicle: saline) is 104 % of control; the T/C (dose: 12.5 mg/kg/injection, schedule: Q04DX002 (ip), vehicle: saline) is 97 % of control; the T/C (dose: 25.0 mg/kg/injection, schedule: Q04DX002 (ip), vehicle: saline) was 102 % of control.
Consider `CNC(=O)Oc1ccccc1OC(C)C`, for which the T/C by setting is: (dose: 7.5 mg/kg/injection, schedule: Q01DX005 (ip), vehicle: Klucel (hydroxypropylcellulose) (HPC)) 97 % of control; (dose: 15.0 mg/kg/injection, schedule: Q01DX005 (ip), vehicle: Klucel (hydroxypropylcellulose) (HPC)) 96 % of control.
In the case of `Cc1cc(N(CC(C)Br)CC(C)Br)ccc1N=Nc1ccccc1C(=O)O` (stereo unspecified), the T/C is, setting by setting: under setting [8], 196 % of control; (dose: 12.5 mg/kg/injection, schedule: Q01DX009 (ip), vehicle: saline with Tween-80) 108 % of control; (dose: 12.5 mg/kg/injection, schedule: Q01DX009 (oral), vehicle: saline with Tween-80) 115 % of control; (dose: 50.0 mg/kg/injection, schedule: Q01DX009 (oral), vehicle: saline with Tween-80) 157 % of control; (dose: 100.0 mg/kg/injection, schedule: Q01DX009 (oral), vehicle: saline with Tween-80) 89 % of control.
With `C=C1C(=O)[C@]23C[C@H]1CC[C@H]2[C@@]12CO[C@@H](O)[C@@H]1C(C)(C)[C@@H](O)C[C@@H]2OC3=O`, the T/C is 100 % of control (dose: 3.8 mg/kg/injection, schedule: Q01DX008 (ip), vehicle: saline with Tween-80); 102 % of control (dose: 7.5 mg/kg/injection, schedule: Q01DX008 (ip), vehicle: saline with Tween-80); 113 % of control (dose: 7.5 mg/kg/injection, schedule: Q01DX009 (ip), vehicle: saline with Tween-80); 94 % of control (dose: 15.0 mg/kg/injection, schedule: Q01DX008 (ip), vehicle: saline with Tween-80); 123 % of control (dose: 15.0 mg/kg/injection, schedule: Q01DX009 (ip), vehicle: saline with Tween-80); 102 % of control (dose: 30.0 mg/kg/injection, schedule: Q01DX008 (ip), vehicle: saline with Tween-80). Also, the T/C by setting is: (dose: 30.0 mg/kg/injection, schedule: Q01DX009 (ip), vehicle: saline with Tween-80) 117 % of control; (dose: 60.0 mg/kg/injection, schedule: Q01DX009 (ip), vehicle: saline with Tween-80) 113 % of control.
In the case of `O=Cc1c(-c2ccc(-c3ccccc3)cc2)nc2sccn12`, the T/C by setting is: (dose: 100.0 mg/kg/injection, schedule: Q01DX001 (ip), vehicle: Klucel (hydroxypropylcellulose) (HPC)) 86 % of control; (dose: 200.0 mg/kg/injection, schedule: Q01DX001 (ip), vehicle: Klucel (hydroxypropylcellulose) (HPC)) 89 % of control; (dose: 400.0 mg/kg/injection, schedule: Q01DX001 (ip), vehicle: Klucel (hydroxypropylcellulose) (HPC)) 89 % of control.
Regarding `O=C1OC(C(O)C(O)CO)C(O)C1O` (stereo unspecified), the T/C (dose: 50.0 mg/kg/injection, schedule: Q01DX005 (ip), vehicle: saline) is 108 % of control; the T/C (dose: 100.0 mg/kg/injection, schedule: Q01DX005 (ip), vehicle: saline) is 100 % of control; the T/C (dose: 200.0 mg/kg/injection, schedule: Q01DX005 (ip), vehicle: saline) was 95 % of control.
For `C1OC2CC1CO2`, the T/C is, setting by setting: under setting [3], 100 % of control; under setting [4], 103 % of control; under setting [5], 103 % of control.
Take `COc1ccc(C(=O)C(C)Oc2ccccc2OC)cc1OC` (stereo unspecified): the T/C (dose: 10.0 mg/kg/injection, schedule: Q01DX005 (ip), vehicle: Klucel (hydroxypropylcellulose) (HPC)) was 99 % of control; the T/C (dose: 20.0 mg/kg/injection, schedule: Q01DX005 (ip), vehicle: Klucel (hydroxypropylcellulose) (HPC)) was 100 % of control; the T/C (dose: 40.0 mg/kg/injection, schedule: Q01DX005 (ip), vehicle: Klucel (hydroxypropylcellulose) (HPC)) was 101 % of control.
As for `COc1ccc2c(c1)C(=O)C=C(c1ccccc1)S2(=O)=O`, the T/C reads like this: (dose: 60.0 mg/kg/injection, schedule: Q01DX005 (ip), vehicle: Klucel (hydroxypropylcellulose) (HPC)) 110 % of control; (dose: 120.0 mg/kg/injection, schedule: Q01DX005 (ip), vehicle: Klucel (hydroxypropylcellulose) (HPC)) 110 % of control; (dose: 240.0 mg/kg/injection, schedule: Q01DX005 (ip), vehicle: Klucel (hydroxypropylcellulose) (HPC)) 117 % of control.
As for `CC(CN)OC12CC3CC(CC(C3)C1)C2` (stereo unspecified), the T/C is 100 % of control under setting [1] and 99 % of control under setting [2].
For `O=C(Cc1nc2ccccc2[nH]1)NNC(=S)NC1CCCCC1`, the T/C was 87 % of control under setting [6] and 88 % of control under setting [7].
Turning to `ClCCN(CCCl)c1ccc(N=Cc2ccccc2)cc1`, the T/C was 159 % of control and 167 % of control (dose: 1.56 mg/kg/injection, schedule: Q01DX009 (ip), vehicle: saline with Tween-80); 179 % of control and 205 % of control (dose: 3.12 mg/kg/injection, schedule: Q01DX009 (ip), vehicle: saline with Tween-80); 230 % of control under setting [8].
